Experiment: xn = mol fraction of the nth substance listed
Settings: 298.15 K, 101.3 kPa

CC(=O)[O-].CCCC[N+]1(C)CCCC1 + O
Settings | electrical conductivity [S/m]
x1 = 0.005 | 1.84
x1 = 0.029 | 2.8
x1 = 0.046 | 2.63
x1 = 0.069 | 2.17
x1 = 0.095 | 1.79
x1 = 0.111 | 1.26
x1 = 0.138 | 1.18
x1 = 0.215 | 0.8
x1 = 0.253 | 0.575
x1 = 0.305 | 0.495
x1 = 0.396 | 0.339
x1 = 0.5 | 0.193
x1 = 0.658 | 0.142

Reference: a compilation of properties of binary mixtures (doi:10.1016/j.molliq.2022.120564)
